Key:
Type in all cases: cell-based
E. coli strain WO-153 = assay: Genome-wide E. coli ORFmer overexpression rescue (OER) assay
Description: Over expression Rescue Assays. Over expression assays were conducted with the E. coli strain WO-153 described in Table 7. Construction of WO-0153. […] The asmB1 mutation is a G to A transition at position 628 in the 1pxC gene. […] The tolC gene encodes an outer membrane protein that acts as a channel for the acrAB efflux pumps (See for example, Fralick, J. 1996. J. Bacteriol. 178:5801-5805). […] WO-0153 was constructed as follows. The asmB1 mutation was introduced into a DNA fragment containing the 1pxC gene and 1 kb of the 5′ end of the secA gene by site directed mutagenesis of the 1pxC gene using standard methods. A kan^R resistance cassette flanked by FRT sites was introduced 60 bp downstream of the 1pxC gene. The linear DNA construct was introduced into electrocompetent and recombinogenic E. coli KM354 (pTP223) as described by Murphy (See for example, Murphy, 1998, J. Bacteriol. 180: 2063-71). Transformants were selected on LB agar containing kanamycin (35 mcg/ml) and screened for sensitivity to novobiocin (20 mcg/ml). The presence of the asmB1 mutation in clones with the expected phenotype was verified by DNA sequence analysis. The kanR gene flanked by FRT sites was then excised from the 1pxC-secA intergenic region using a previously described method (See for example, Cherepanove, P. P, and Wackernagel, W. 1995. Gene 158: 9-14.). […] 178:5138-5143; Fralick, J. (1996). J. Bacteriol. 178:5801-5805; Fralick, J. A., et al. (1994) J. Bacteriol. 176:6404-6406; and Cherepanove, P. P, et al., (1995) Gene 158:9-14. […] Plasmid library DNA was transformed into WO-153 by electroporation as described above. Cells were collected from transformation plates by scraping and were equalized to an optical density of 1.53 on a Beckman DU650 spectrophotometer([…]). Groups of five libraries were mixed and frozen in LB media plus 10% (vol/vol) glycerol by immersion in a dry-ice/ethanol bath for 5 minutes.
Over-expression assays were performed in liquid media in a microtiter format, in a gradient plate format, or in a disk-diffusion format. The protocol used for the microtiter format was similar to the protocol described above for the MIC assay. Aliquots of 5 library pools spanning the genome were thawed at room temperature and 200 ul of each was inoculated into its own 20 ml of Mueller Hinton media containing ampicillin at 200 ug/ml and anhydrous tetracycline inducer as appropriate. Typically, replicates were performed using a number of final inducer concentrations, ranging from 0 to 100 ng/ml. Following an adequate mixing, 50 ul of inoculated media was mixed with 50 ul of the test antibiotic in Nunc brand 96-well microtiterplates. Typically, each group of five libraries was mixed with a range of concentrations of antibiotic spanning the minimum inhibitory concentration (MIC) of the antibiotic. […] Columns may contain 10 different groups of libraries as well as null vector and no innoculum controls. After mixing inoculum plus media with antibiotic, well contents were mixed by pipetting and incubated at 37° C. for 16 to 20 hours. Optical density at 600 nm was measured using a Molecular Devices SpectraMAX 250 spectrophotometer. […] Contents of wells showing rescue were transferred to LB agar plates containing ampicillin at 100 ug/ml, and were spread to obtain single colonies. Alternately, it is possible to maintain selection for the antibiotic being assayed by including it in the agar plates at this point.
OER Assay using Disk diffusion and Gradient Plate Assay formats. In the Disk diffusion plate format, the 3 inocula (see below) were plated on MHB plates containing ampicillin (100 mcg/ml) and anhydrous tetracycline (a-tet, 100 ng/ml). Two paper disks (6 mm diameter) containing 10×and 20×MIC of the test antiobiotic were placed on the surface of the plate.

[1] = system: cells in which murA is regulated by PBAD; assay: MIC by microbroth dilution in E. coli under-expressing murA; conditions: FIG. 6
Description: The wild-type gene murA, which encodes the enzyme UDP-N-acetylglucosamine enolpyruvate transferase, was knocked out in E. coli, and the gene was placed under ectopic expression in the yibD locus under regulation by PBAD with the regulator, L-arabinose.
(§1) Methods. […] IPTG was added to a final concentration of 0.1 mM and anhydrous-tetracycline was added to a final concentration of 100 ng/ml to the culture media for routine growth of GTC-EC#313 and GTC-EC#346, respectively.
(§2) The specificity and sensitivity of the resultant colonies to added drugs were followed by measuring the minimal inhibitory concentration (MIC) of trimethoprim, sulfamethozasone, phosphomycin and D-cycloserine at varying regulator levels. This was performed according to NCCLS (National Center for Clinical Laboratory Standards) recommendations(NCCLS, 1997, METHODS FOR DILUTION ANTIMICROBIAL SUSCEPTIBILITY TESTS FOR BACTERIA THAT GROW AEROBICALLY, 4th ed.; approved standard. NCCLS document M7-A4. NCCLS, Wayne, Pa.), in 100 μl volume in 96-well format, with serial two-fold dilutions of drug concentration.

[2] = system: B. subtilis NO-347 (BD170 thrC::Pspac-murA kanR ΔmurA::CmR); assay: MIC by microbroth dilution in B. subtilis under-expressing murA; conditions: IPTG 0-0.1 mM, compared to the control strain, FIG. 10
Description: Materials and Methods. The materials are the same as discussed above. Plasmids are listed in Table 4 B. subtilis strains were routinely grown in LB media or on LB agar plates containing 1.5% agar (Sambrook et al., MOLECULAR CLONING: A LABORATORY MANUAL, 2nd ed., Cold Spring Harbor Laboratory Press, 1989). MIC determination is performed using microbroth dilution-cultures grown in Mueller Hinton broth in 96-well microtiter plates purchased from Nunc (Plates—Cat. No. 262162; Lids—Cat. No. 264122). When required, media were supplemented with 5 μg/ml chloramphenicol or 10 μg/ml kanamycin. IPTG was added to culture media at a final concentration of 0.05 mM for routine culture growth of B. subtilis NO-347 (BDI70 thrC::Pspac-murA kan^R ΔmurA::Cm^R), which is dependent on IPTG for growth.
The endogenous murA gene in NO-360 was deleted by allelic replacement as follows (see FIG. 9). DNA fragments flanking the 5′ and 3′ ends of the murA gene were amplified from B. subtilis 168 genomic DNA using primer pairs KO mura F1+R2 and KO murA F2+R1, respectively. The 5′ and 3′ flanking fragments were linked to the Cm^R gene from pEVP3 using the cross-over PCR technique with the primer pair KO mura F1+R1. The resulting PCR product (shown in FIG. 9B) was used to transform naturally competent B. subtilis NO-360. Cm^R clones were selected in the presence of 0.01 mM and 0.05 mM IPTG. Allelic replacement of murA in Cm^R clones was verified by PCR. Strain NO-347 (BD170 thrC::Pspac-murA Kan^R ΔmurA::Cm^R) was chosen for MIC determinations for phosphomycin in presence of various concentrations of the regulator IPTG.
MIC determinations. Determination of minimum inhibitory concentration (MIC) for phosphomycin, novobiocin, erythromycin and trimethoprim lactate were performed in 96-well microliter plates using the microbroth dilution technique as described in NCCLS. 1997. Methods for dilution antimicrobial susceptibility tests for bacteria that grow aerobically-fourth edition; approved standard. NCCLS document M7-A4. NCCLS, Wayne, Pa. For MIC determinations using strain NO-347, various concentrations (0-0.1 mM) were added to the media. Growth was quantitated by OD600 measurements using a SpectroMax 250 plate reader (Molecular Devices).

[3] = system: cells in which folA is regulated by PBAD, PLtetO-1, or Plac/ara-1; assay: MIC by microbroth dilution in E. coli under-expressing folA; conditions: FIG. 5
Description: In another example, the wild-type native folA gene was knocked out, and a wild-type copy of the gene folA, which encodes the protein dihydrofolate reductase, was placed under ectopic expression in the yibD locus under regulation by PBAD with the regulator, L-arabinose. Dihydropteroate synthetase, the gene product of […], catalyzes the enzymatic reaction two steps before dihydrofolate reductase in the folate biosynthetic pathway.
as §1, §2

N[C@@H]1CONC1=O [D-cycloserine]
identity of OER clones that were not the expected gene, by sequence analyses (E. coli strain WO-153): closely related ddlB gene | OER clones that were not the expected ddlA gene (E. coli strain WO-153; PCR verification of OER clones): 80% | sensitivity on under-expression of murA [1]: hypersensitivity

CC[C@H]1OC(=O)[C@H](C)[C@@H](O[C@H]2C[C@@](C)(OC)[C@@H](O)[C@H](C)O2)[C@H](C)[C@@H](O[C@@H]2O[C@H](C)C[C@H](N(C)C)[C@H]2O)[C@](C)(O)C[C@@H](C)C(=O)[C@H](C)[C@@H](O)[C@]1(C)O [erythromycin]
sensitivity (MIC) on regulated under-expression of murA [2]: does not affect sensitivity

CO[C@@H]1[C@@H](OC(N)=O)[C@@H](O)[C@H](Oc2ccc3c(O)c(NC(=O)c4ccc(O)c(CC=C(C)C)c4)c(=O)oc3c2C)OC1(C)C [novobiocin]
sensitivity (MIC) on regulated under-expression of murA [2]: does not affect sensitivity

Cc1cc(NS(=O)(=O)c2ccc(N)cc2)no1 [sulfamethozasone]
MIC with decreasing regulator (L-arabinose) level [3]: decreases

Oc1cc(Cl)ccc1Oc1ccc(Cl)cc1Cl [triclosan]
PCR verification of OER clones: expected target gene (E. coli strain WO-153; liquid microtiter assay, expected targets folA, murA, fabI): expected target gene was identifed | PCR verification of OER clones: expected clone (E. coli strain WO-153; two plate assay format (disk diffusion, gradient plate)): expected clone was isolated
